Data set [1] deals with Caco-2 monolayer model. The arrangement: method as in PMID 12130727. The conditions noted are these: cited from earlier work.
The target of data set [2] is P-gp (Homo sapiens, UniProt P08183). Briefly: Intracellular DTX accumulation in PC3-TxR cells. Type of data set: cell-based. The conditions noted are these: 100 nM DTX; PIP at 50 μg/ml; 120 min; positive control 10 μg/ml of PSC833. As to the method: The PC3 and PC3-TxR cells were seeded in 6-well plate with density of 1×10^4 cells/ml and grew for 24 hours. […] The cells were then lysed and the protein level was measured using a BCA approach (Bio Rad Laboratory, Hercules, CA, USA). […] Briefly, to 0.1 ml of cell lysate, 0.3 ml of tert-butyl methyl ether was added and vortexed for 3 min. The upper organic layer was separated and evaporated to dryness. The residue was reconstituted using 0.1 ml of 80% acetonitrile and 10 μl was injected to an HPLC-MS/MS system for quantification. Paclitaxel was used as internal standard. The intracellular concentration was normalized per protein concentration. […] PSC833 (10 μg/ml) was used as positive control. […] The amount of DTX was compared among these treatment groups.

Data set [3] deals with PC3-TxR tumor xenografts. Description: Tumor growth in mice with PC3-TxR (taxane-resistant) tumor xenografts. As to conditions: TxR tumor xenografts; two weeks after drug administration; DTX 20 mg/kg once a week i.v., PIP 50 mg/kg daily p.o. The format is in vivo, ICR-NOD/SCID mice. As to the method:
The following experimental protocol was adopted after approval by the Animal Research Ethics Committee at the Chinese University of Hong Kong. PC3 and PC3-TxR cells were cultured in RPMI 1640 medium containing 10% FBS and 1% penicillin-streptomycin in a humidified atmosphere of 5% CO2 at 37°C. PC3 and PC3-TxR cell pellets were re-suspended in serum free RPMI1640 and diluted by Matrigel™ Basement Membrane Matrix (BD Biosciences, Bedford, MA, USA) to the density of 3.33 × 10^6cells/ml. Male ICR-NOD/SCID mice (Laboratory Animal Services Center at the Chinese University of Hong Kong) weighing 25 to 30 g (age 6–8 weeks) was anesthetized with an intraperitoneal injection of a cocktail containing 87 mg/kg ketamine and 8.7 mg/kg xylazine (diluted with saline and the injection volume was about 0.1 ml). The cell suspension was injected subcutaneously to both the left and right flank region. The tumors were allowed to grow for about 2 weeks. Tumor volumes were measured twice per week (tumor volume = [(W^2 × L)/2], where W is the tumor measurement at the widest point, and L is the tumor dimension at the longest point). When the tumors reach about 100 mm^3, treatment was started and the date was designated as Day 0.

Broadly, the IC50 is the point on the concentration scale where inhibition reaches its midpoint.

Where two headings read alike, the source gives them in different places.

P-gp, sequence (P08183 whole entry): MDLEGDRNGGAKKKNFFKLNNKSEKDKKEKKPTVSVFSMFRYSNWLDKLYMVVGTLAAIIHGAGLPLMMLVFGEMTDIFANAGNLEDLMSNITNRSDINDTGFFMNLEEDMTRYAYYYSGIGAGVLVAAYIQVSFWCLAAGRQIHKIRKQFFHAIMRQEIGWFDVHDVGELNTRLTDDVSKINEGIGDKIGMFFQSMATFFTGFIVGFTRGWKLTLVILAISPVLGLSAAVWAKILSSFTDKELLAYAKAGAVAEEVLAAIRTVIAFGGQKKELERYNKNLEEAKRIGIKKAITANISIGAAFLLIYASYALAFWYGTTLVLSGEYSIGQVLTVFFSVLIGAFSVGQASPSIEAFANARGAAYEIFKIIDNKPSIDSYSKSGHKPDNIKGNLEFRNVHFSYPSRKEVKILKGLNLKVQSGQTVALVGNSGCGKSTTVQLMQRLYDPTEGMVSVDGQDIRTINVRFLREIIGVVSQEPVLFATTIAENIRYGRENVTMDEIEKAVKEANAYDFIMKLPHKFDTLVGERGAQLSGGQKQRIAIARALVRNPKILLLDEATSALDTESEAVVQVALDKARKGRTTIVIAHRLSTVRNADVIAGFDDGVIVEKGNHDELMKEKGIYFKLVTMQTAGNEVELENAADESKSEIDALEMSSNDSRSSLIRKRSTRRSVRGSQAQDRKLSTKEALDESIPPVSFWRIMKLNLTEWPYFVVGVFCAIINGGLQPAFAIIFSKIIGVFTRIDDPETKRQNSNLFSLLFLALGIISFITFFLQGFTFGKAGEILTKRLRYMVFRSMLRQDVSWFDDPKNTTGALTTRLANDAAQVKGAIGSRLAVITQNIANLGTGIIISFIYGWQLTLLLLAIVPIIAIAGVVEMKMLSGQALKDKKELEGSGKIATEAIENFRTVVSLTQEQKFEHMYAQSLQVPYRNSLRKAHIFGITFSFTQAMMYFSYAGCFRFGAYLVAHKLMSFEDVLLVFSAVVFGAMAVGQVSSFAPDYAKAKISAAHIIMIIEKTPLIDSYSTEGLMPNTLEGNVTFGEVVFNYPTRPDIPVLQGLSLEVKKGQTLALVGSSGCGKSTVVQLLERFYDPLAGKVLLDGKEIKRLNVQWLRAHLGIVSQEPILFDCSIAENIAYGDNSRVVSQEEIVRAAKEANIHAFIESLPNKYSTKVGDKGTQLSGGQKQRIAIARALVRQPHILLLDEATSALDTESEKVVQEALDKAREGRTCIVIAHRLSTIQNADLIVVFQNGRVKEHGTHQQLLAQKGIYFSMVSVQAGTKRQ

For `O=C(/C=C/C=C/c1ccc2c(c1)OCO2)N1CCCCC1` [PIP, 1-piperoyl piperidine], the IC50 was 74.1 µM in data set [1] (read-out: IC50 of inhibition of the transport of cyclosporine A) and 15.5 µM in data set [1] (read-out: IC50 of inhibition of the transport of digoxin). Besides, the “intracellular DTX concentration in PC3-TxR cells” value in data set [2] was “increased to a level similar to that in the positive control”. Also, the “percentage of tumor size increase” value in data set [3] stood at 196%.

The record behind these values is publication PMC5790467, “Enhanced anti-tumor efficacy and mechanisms associated with docetaxel-piperine combination- in vitro and in vivo investigation using a taxane-resistant prostate cancer model” (Oncotarget, 2017).
